The source of these data is patent publication US4791215A, “Derivatives of glutamic acid and aspartic acid” (priority 1984, dated 1988).

Like-named read-outs stand apart in the source and are kept apart here.

The subject of the experiment is pancreatic adenocarcinoma. It is filed as in vivo, hamsters. The text has this: The anti-cholecystokinin effect of the most powerful of the compounds which are the subject of the present invention, that is the compound C-7, on the trophic activity of CCK on normal pancreatic cells and on those of a pancreatic adenocarcinoma is to be studied.
Male hamsters were inoculated in the cheek pouches with a suspension of 1×10^5 tumoral cells of a pancreatic adenocarcinoma. Five days after the inoculation the animals were divided at random into 4 groups of 10 animals each, that is, a control group, a group of animals treated with 10 μg/kg of CCK-8 three times a day, a group of animals treated with 5 mg/kg i.p. of compound C-7 three times a day, and a fourth group treated simultaneously with the compound C-7 and CCK-8 in the manner described above.
After 15 days of this treatment, the animals were killed, and the normal pancreas and the inoculated pancreatic tumours in the cheek pouches were collected and weighed. The DNA was extracted and measured according to conventional techniques.
The results thus obtained are given in Table 13, expressed as mean values (±S.E.)

The mark [1] stands for this setting: 10 mcg/kg CCK-8 + compound 5 mg/kg, 3 times a day.
[2] abbreviates: compound 5 mg/kg i.p. 3 times per day.

In the case of `CCCCCN(CCCCC)C(=O)C(CCC(=O)O)NC(=O)c1ccc(Cl)c(Cl)c1` (centres unmarked) [Compound C-7], the “TUMORAL DNA” value runs as follows: under setting [1], 0.4 ± 0.02 mg; under setting [2], 0.42 ± 0.02 mg. In addition, the “Weight of Pancreatic Carcinoma” value under setting [1] is given as 109.5 ± 6.2 mg and the “Weight of Pancreatic Carcinoma” value under setting [2] worked out at 104 ± 7.5 mg. Further, where the note is “hamster, in vivo”, the “effect on growth of pancreatic adenocarcinoma / CCK-8 actions” value is reported as “antagonises both these actions of CCK-8 in a higly significant manner”.
